The results in this text go back to patent US5712273A, “Amino acid derivatives, processes for the manufacture thereof and pharmaceutical compositions (II) containing these compounds” (Boehringer Ingelheim GmbH, priority 1994, dated 1998).

By IC50 is commonly meant the point on the concentration scale where inhibition reaches its midpoint.

Read-outs that look alike come from different tables or passages of the source.

The target of one test is T1, human NK2 receptor (Homo sapiens, UniProt P21452).
T1 construct: expressed in transfected cells; host or cells: A20 cells
T1 sequence (P21452 1-398): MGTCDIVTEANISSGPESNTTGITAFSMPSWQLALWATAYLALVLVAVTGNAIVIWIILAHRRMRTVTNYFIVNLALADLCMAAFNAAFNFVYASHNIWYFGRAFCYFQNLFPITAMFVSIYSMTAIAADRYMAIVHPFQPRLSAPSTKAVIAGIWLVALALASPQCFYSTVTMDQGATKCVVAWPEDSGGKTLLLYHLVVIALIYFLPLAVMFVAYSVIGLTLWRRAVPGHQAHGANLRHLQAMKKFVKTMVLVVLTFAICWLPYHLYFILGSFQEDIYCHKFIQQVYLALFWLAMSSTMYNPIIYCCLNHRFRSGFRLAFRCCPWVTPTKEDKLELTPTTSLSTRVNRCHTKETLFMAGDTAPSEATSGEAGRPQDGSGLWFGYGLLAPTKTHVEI
In words: NK2-binding test: displacement of 125I-labelled ligand on A20 cells which represent the human NK2 receptor. The note with it: transfixed A20 cells (human NK2 receptor); displacement of 125I-BN-neusolinine A. The procedure: (§1) The receptor affinity at the NK1 -receptor (substance P-receptor) was determined with cloned NK1 -receptors on human lymphoblastoma cells (IM-9), whereby the displacement of ^125 I-labelled substance P is measured. The NK2 -binding test is carried out on transfixed A20 cells which represent the human NK2 receptor. The displacement of ^125 I-BN-neusolinine A is determined.

Test [1] deals with T2, NK1-receptor (substance P-receptor) (Homo sapiens, UniProt P25103).
T2 construct: cloned NK1 -receptors on human lymphoblastoma cells (IM-9); endogenous in cells; host or cells: IM-9 human lymphoblastoma cells
The test can be described thus: NK1-receptor (substance P-receptor) affinity: displacement of 125I-labelled substance P on IM-9 cells. Type of test: binding. On the procedure:
as §1
For orientation: Displacement assays read how much labelled ligand stays bound in the presence of the test substance.

Where [2] appears, read: cloned NK1-receptors on human lymphoblastoma cells (IM-9), displacement of 125I-labelled substance P, read-out: NK1 IC50.

T2 sequence (P25103 whole entry): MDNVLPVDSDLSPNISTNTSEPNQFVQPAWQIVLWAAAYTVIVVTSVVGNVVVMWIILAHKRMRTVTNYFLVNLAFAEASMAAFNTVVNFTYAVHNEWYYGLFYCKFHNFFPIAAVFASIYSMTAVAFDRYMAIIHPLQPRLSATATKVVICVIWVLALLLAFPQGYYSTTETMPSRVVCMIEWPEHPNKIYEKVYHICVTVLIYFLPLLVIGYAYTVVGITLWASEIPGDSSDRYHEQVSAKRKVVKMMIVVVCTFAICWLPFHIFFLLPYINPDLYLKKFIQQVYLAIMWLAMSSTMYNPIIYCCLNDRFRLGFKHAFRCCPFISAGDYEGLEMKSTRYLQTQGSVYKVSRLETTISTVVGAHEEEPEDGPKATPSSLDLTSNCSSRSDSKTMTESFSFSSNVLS

For the molecule `Cc1ccccc1CN(C)C(=O)[C@H](Cc1c[nH]c2ccccc12)NC(=O)[C@@H]1C[C@@H](O)CN1C(=O)C1C(=O)C2(C)CCC1C2(C)C` (single isomer, unassigned) [Compound 2], the IC50 at human NK2 receptor is 21 nM; in test [1] (setting [2]), 3.6 nM.

With `CCc1ccccc1CN(C)C(=O)[C@H](Cc1c[nH]c2ccccc12)NC(=O)[C@@H]1C[C@@H](O)CN1C(=O)C1C(=O)C2(C)CCC1C2(C)C` (stereo partly drawn) [Compound 44], the half-maximal inhibitory concentration (IC50) on human NK2 receptor stood at 39 nM; in test [1] (setting [2]), 5.1 nM.

`CC12CCC(C(C(=O)N3C[C@H](O)C[C@H]3C(=O)N[C@@H](Cc3ccc4ccccc4c3)C(=O)N3CCN(C(c4ccc(F)cc4)c4ccc(F)cc4)CC3)C1=O)C2(C)C` (stereo partly drawn) [Compound 10]: the IC50 in test [1] (setting [2]) is 200 nM.

With `CC12CCC(C(C(=O)N3C[C@H](O)C[C@H]3C(=O)N[C@@H](Cc3c[nH]c4ccccc34)C(=O)N3CCN(c4ccccc4C#N)CC3)C1=O)C2(C)C` (stereo partly drawn) [Compound 26], the IC50 in test [1] (setting [2]) amounted to 28 nM.

With `COc1ccccc1N1CCN(C(=O)[C@H](Cc2ccc3ccccc3c2)NC(=O)[C@@H]2C[C@@H](O)CN2C(=O)C2C(O)C3CCN2CC3)CC1` (stereo partly drawn) [Compound 22], the half-maximal inhibitory concentration (IC50) on human NK2 receptor worked out at 1300 nM; in test [1], 25 nM.

As for `COc1ccc(N2CCN(C(=O)[C@H](Cc3ccc4ccccc4c3)NC(=O)[C@@H]3C[C@@H](O)CN3C(=O)C3C(=O)C4(C)CCC3C4(C)C)CC2)c(C)c1` (stereo partly drawn) [Compound 5], the values for the IC50 (on human NK2 receptor; in test [1] (setting [2])) were 117 nM and 11 nM, respectively.

On to `CCOC(=O)c1ccccc1N1CCN(C(=O)[C@H](Cc2ccc3ccccc3c2)NC(=O)[C@@H]2C[C@@H](O)CN2C(=O)C2C(=O)C3(C)CCC2C3(C)C)CC1` (stereo partly drawn) [Compound 7], for which the 50% inhibitory concentration (IC50) was 44 nM on human NK2 receptor and 0.45 nM in test [1] (setting [2]).

Take `COc1ccccc1N1CCN(C(=O)[C@H](Cc2ccc3ccccc3c2)NC(=O)[C@@H]2C[C@@H](O)CN2C(=O)C2C(=O)C3(C)CCC2C3(C)C)CC1` (single isomer, unassigned) [Compound 1]: the IC50 on human NK2 receptor was 21 nM; in test [1] (setting [2]), 3.1 nM.

With `CC12CCC(C(C(=O)N3C[C@H](O)C[C@H]3C(=O)N[C@@H](Cc3ccc4ccccc4c3)C(=O)N3CCN(c4ccc5ccccc5c4)CC3)C1=O)C2(C)C` (stereo partly drawn) [Compound 13], the values for the IC50 (at human NK2 receptor; in test [1] (setting [2])) were 780 nM and 105 nM, respectively.

For `Cc1ccccc1CN(C)C(=O)[C@H](Cc1cn(C)c2ccccc12)NC(=O)[C@@H]1C[C@@H](O)CN1C(=O)C1C(=O)C2(C)CCC1C2(C)C` (stereo partly drawn) [Compound 45], the IC50 at human NK2 receptor amounted to 59 nM; in test [1] (setting [2]), 4.9 nM.

`CC12CCC(C(C(=O)N3C[C@H](O)C[C@H]3C(=O)N[C@@H](Cc3ccc4ccccc4c3)C(=O)N3CCN(c4ccccc4C#N)CC3)C1=O)C2(C)C` (stereo partly drawn) [Compound 16]: the IC50 was 19 nM at human NK2 receptor and 0.7 nM in test [1] (setting [2]).

`CC12CCC(C(C(=O)N3C[C@H](O)C[C@H]3C(=O)N[C@@H](Cc3ccc4ccccc4c3)C(=O)N3CCN(c4ccccc4O)CC3)C1=O)C2(C)C` (stereo partly drawn) [Compound 12]: in test [1] (setting [2]), the IC50 was 5.6 nM.

In the case of `CC(C)c1ccccc1N1CCN(C(=O)[C@H](Cc2ccc3ccccc3c2)NC(=O)[C@@H]2C[C@@H](O)CN2C(=O)C2C(=O)C3(C)CCC2C3(C)C)CC1` (stereo partly drawn) [Compound 4], the IC50 at human NK2 receptor worked out at 110 nM; in test [1] (setting [2]), 5 nM.

For the molecule `CN(Cc1ccccc1Cl)C(=O)[C@H](Cc1c[nH]c2ccccc12)NC(=O)[C@@H]1C[C@@H](O)CN1C(=O)C1C(=O)C2(C)CCC1C2(C)C` (stereo partly drawn) [Compound 42], the figures for the IC50 (on human NK2 receptor; in test [1] (setting [2])) were 54 nM and 1.2 nM, respectively.

As for `COc1ccccc1N1CCN(C(=O)[C@H](Cc2ccc3ccccc3c2)NC(=O)[C@@H]2C[C@@H](O)CN2C(=O)C2CCCCC2O)CC1` (stereo partly drawn) [Compound 21], the figures for the IC50 (on human NK2 receptor; in test [1] (setting [2])) were 130 nM and 20 nM, respectively.

For `CC12CCC(C(C(=O)N3C[C@H](O)C[C@H]3C(=O)N[C@@H](Cc3ccc4ccccc4c3)C(=O)N3CCN(C4CCCCC4)CC3)C1=O)C2(C)C` (stereo partly drawn) [Compound 9], the half-inhibitory concentration (IC50) in test [1] (setting [2]) came to 17 nM.

Regarding `CN(Cc1ccccc1Br)C(=O)[C@H](Cc1c[nH]c2ccccc12)NC(=O)[C@@H]1C[C@@H](O)CN1C(=O)C1C(=O)C2(C)CCC1C2(C)C` (stereo partly drawn) [Compound 43], the concentration for half-maximal inhibition (IC50) on human NK2 receptor came to 21 nM; in test [1] (setting [2]), 1.2 nM.

Turning to `COc1ccccc1N1CCN(C(=O)[C@H](Cc2ccc3ccccc3c2)NC(=O)[C@@H]2C[C@@H](O)CN2C(=O)C23CCC(C)(C(=O)O2)C3(C)C)CC1` (stereo partly drawn) [Compound 24], the IC50 is 1240 nM at human NK2 receptor and 3.3 nM in test [1] (setting [2]).

`Cc1ccccc1N1CCN(C(=O)[C@H](Cc2ccc3ccccc3c2)NC(=O)[C@@H]2C[C@@H](O)CN2C(=O)C2C(=O)C3(C)CCC2C3(C)C)CC1` (stereo partly drawn) [Compound 3]: the IC50 on human NK2 receptor came out at 65 nM; in test [1] (setting [2]) it was 3 nM.

Turning to `CC12CCC(C(C(=O)N3C[C@H](O)C[C@H]3C(=O)N[C@@H](Cc3ccc4ccccc4c3)C(=O)N3CCN(c4ccccn4)CC3)C1=O)C2(C)C` (stereo partly drawn) [Compound 6], the IC50 in test [1] (setting [2]) is 45 nM.

On to `COc1ccccc1CN1C(=O)C(NC(=O)[C@@H]2C[C@@H](O)CN2C(=O)C2C(=O)C3(C)CCC2C3(C)C)Cc2cc(OC)c(OC)cc21` (stereo partly drawn) [Compound 28], for which the half-inhibitory concentration (IC50) on human NK2 receptor turned out to be 1500 nM; in test [1] (setting [2]) it was 23 nM.

Take `COc1ccccc1N1CCN(C(=O)[C@H](Cc2ccc3ccccc3c2)NC(=O)[C@@H]2C[C@@H](O)CN2C(=O)C2CC3CCC2(OC)CC3)CC1` (stereo partly drawn) [Compound 23]: the IC50 on human NK2 receptor was found to be 140 nM; in test [1] (setting [2]) it was 14 nM.

As to `COc1ccccc1N1CCN(C(=O)[C@H](Cc2ccc3ccccc3c2)NC(=O)[C@@H]2C[C@@H](O)CN2C(=O)C2C3CC4C(C3=O)C42)CC1` (stereo partly drawn) [Compound 17], the IC50 was 93 nM at human NK2 receptor and 7 nM in test [1] (setting [2]).

In the case of `COc1ccccc1N1CCN(C(=O)[C@H](Cc2ccc3ccccc3c2)NC(=O)[C@@H]2C[C@@H](O)CN2S(=O)(=O)CC23CCC(CC2=O)C3(C)C)CC1` (stereo partly drawn) [Compound 20], the IC50 at human NK2 receptor was determined as 350 nM; in test [1] (setting [2]), 26 nM.

Consider `CSc1ccccc1N1CCN(C(=O)[C@H](Cc2ccc3ccccc3c2)NC(=O)[C@@H]2C[C@@H](O)CN2C(=O)C2C(=O)C3(C)CCC2C3(C)C)CC1` (stereo partly drawn) [Compound 14], for which the figures for the half-inhibitory concentration (IC50) (on human NK2 receptor; in test [1] (setting [2])) were 240 nM and 3.1 nM, respectively.

With `CC12CCC(C(C(=O)N3C[C@H](O)C[C@H]3C(=O)N[C@@H](Cc3ccc4ccccc4c3)C(=O)N3CCN(c4ccccc4[N+](=O)[O-])CC3)C1=O)C2(C)C` (stereo partly drawn) [Compound 11], the IC50 in test [1] (setting [2]) came to 3.2 nM.

`CC12CCC(C(C(=O)N3C[C@H](O)C[C@H]3C(=O)N[C@@H](Cc3ccc4ccccc4c3)C(=O)N3CCN(c4ccccc4Cl)CC3)C1=O)C2(C)C` (stereo partly drawn) [Compound 8]: the IC50 at human NK2 receptor came out at 18 nM; in test [1] (setting [2]) it was 3 nM.

For the molecule `COc1ccccc1N1CCN(C(=O)[C@H](Cc2ccc3ccccc3c2)NC(=O)[C@@H]2C[C@@H](O)CN2C(=O)C2CCCCC2=O)CC1` (stereo partly drawn) [Compound 25], the half-maximal inhibitory concentration (IC50) on human NK2 receptor worked out at 880 nM; in test [1] (setting [2]) it was 18 nM.

For `COc1ccccc1N1CCN(C(=O)[C@H](Cc2ccc3ccccc3c2)NC(=O)[C@@H]2C[C@@H](O)CN2C(=O)C2CC3C=CC2(OC)CC3)CC1` (stereo partly drawn) [Compound 19], the figures for the half-inhibitory concentration (IC50) (on human NK2 receptor; in test [1] (setting [2])) were 600 nM and 26 nM, respectively.

For the molecule `Cc1ccccc1CN(C)C(=O)[C@H](Cc1c[nH]c2ccccc12)NC(=O)[C@@H]1CCCN1C(=O)C1C(=O)C2(C)CCC1C2(C)C` (stereo partly drawn) [Compound 47], the values for the IC50 (on human NK2 receptor; in test [1] (setting [2])) were 57 nM and 3.2 nM, respectively.

With `COc1ccccc1N1CCN(C(=O)[C@H](Cc2ccc3ccccc3c2)NC(=O)[C@@H]2C[C@@H](O)CN2C(=O)C2C3CCC(C)(C2O)C3(C)C)CC1` (stereo partly drawn) [Compound 18], the values for the 50% inhibitory concentration (IC50) (on human NK2 receptor; in test [1] (setting [2])) were 16 nM and 8 nM, respectively.

As to `CCOc1ccccc1N1CCN(C(=O)[C@H](Cc2ccc3ccccc3c2)NC(=O)[C@@H]2C[C@@H](O)CN2C(=O)C2C(=O)C3(C)CCC2C3(C)C)CC1` (stereo partly drawn) [Compound 15], the IC50 at human NK2 receptor was 38 nM; in test [1] (setting [2]) it was 3.2 nM.

`CN(Cc1ccccc1)C(=O)[C@H](Cc1ccc2ccccc2c1)NC(=O)[C@@H]1C[C@@H](O)CN1C(=O)C1C(=O)C2(C)CCC1C2(C)C` (stereo partly drawn) [Compound 27]: the IC50 at human NK2 receptor came to 450 nM; in test [1] (setting [2]), 0.5 nM.
